# Measurements taken from ChEMBL document CHEMBL3132769, “Fragment growing to retain or alter the selectivity of anchored kinase hinge-binding fragments” (Medchemcomm, 2014).
# Legend:
# [1] = biological target: Calcium/calmodulin-dependent protein kinase type II subunit delta (Homo sapiens) (UniProt Q13557); assay: Inhibition of human full length CAMK2D expressed in baculovirus assessed as substrate phosphorylation using fluorescence-labelled peptides as substrate at 0.06 uM after 90 mins by microfluidic peptide phosphorylation assay
# Chain of Calcium/calmodulin-dependent protein kinase type II subunit delta (Homo sapiens) (Q13557 whole entry, canonical isoform): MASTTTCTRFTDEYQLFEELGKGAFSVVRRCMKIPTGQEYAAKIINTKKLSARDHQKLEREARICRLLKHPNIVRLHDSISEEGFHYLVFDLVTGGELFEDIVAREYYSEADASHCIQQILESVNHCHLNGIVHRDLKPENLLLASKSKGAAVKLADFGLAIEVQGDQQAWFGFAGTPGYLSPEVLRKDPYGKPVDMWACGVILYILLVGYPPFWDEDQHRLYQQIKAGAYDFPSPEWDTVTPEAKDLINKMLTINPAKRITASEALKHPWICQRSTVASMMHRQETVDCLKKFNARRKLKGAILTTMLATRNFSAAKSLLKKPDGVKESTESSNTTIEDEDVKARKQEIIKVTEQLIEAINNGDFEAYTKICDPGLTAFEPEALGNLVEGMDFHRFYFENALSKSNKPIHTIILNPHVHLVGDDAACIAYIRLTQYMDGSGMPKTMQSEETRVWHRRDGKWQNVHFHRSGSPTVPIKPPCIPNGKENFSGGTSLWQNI
# [2] = biological target: Casein kinase I isoform alpha (Homo sapiens) (UniProt P48729); assay: Inhibition of human full length CSNK1A1 expressed in baculovirus assessed as substrate phosphorylation using fluorescence-labelled peptides as substrate at 420 uM after 90 mins by microfluidic peptide phosphorylation assay
# Chain of Casein kinase I isoform alpha (Homo sapiens) (P48729 2-337 limits assumed): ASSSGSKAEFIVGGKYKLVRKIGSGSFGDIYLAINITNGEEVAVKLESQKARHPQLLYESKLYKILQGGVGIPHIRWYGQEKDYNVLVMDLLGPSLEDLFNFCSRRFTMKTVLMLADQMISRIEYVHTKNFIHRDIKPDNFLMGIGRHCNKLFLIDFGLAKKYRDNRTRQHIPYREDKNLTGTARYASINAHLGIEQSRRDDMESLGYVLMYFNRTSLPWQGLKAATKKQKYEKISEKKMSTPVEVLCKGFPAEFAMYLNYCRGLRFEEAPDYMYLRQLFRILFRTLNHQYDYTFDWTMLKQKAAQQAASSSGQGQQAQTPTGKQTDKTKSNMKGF
# [3] = biological target: T1, Aurora kinase C (Homo sapiens) (UniProt Q9UQB9); assay: Inhibition of human full length AurC expressed in baculovirus assessed as substrate phosphorylation using fluorescence-labelled peptides as substrate at 0.2 uM after 90 mins by microfluidic peptide phosphorylation assay
# T1 sequence (whole entry): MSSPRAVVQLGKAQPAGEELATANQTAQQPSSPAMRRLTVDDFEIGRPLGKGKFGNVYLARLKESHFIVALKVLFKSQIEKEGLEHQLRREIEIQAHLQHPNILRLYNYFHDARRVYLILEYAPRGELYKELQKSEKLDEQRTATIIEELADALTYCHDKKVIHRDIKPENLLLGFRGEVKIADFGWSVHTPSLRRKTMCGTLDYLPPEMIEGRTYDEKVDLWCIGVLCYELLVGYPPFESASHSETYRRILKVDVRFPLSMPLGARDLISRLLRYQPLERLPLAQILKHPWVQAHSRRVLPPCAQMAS
# [4] = biological target: Casein kinase I isoform delta (Homo sapiens) (UniProt P48730); assay: Inhibition of human CK1D catalytic domain expressed in Escherichia coli cell assessed as substrate phosphorylation using fluorescence-labelled peptides as substrate at 0.1 uM after 90 mins by microfluidic peptide phosphorylation assay
# Chain of Casein kinase I isoform delta (Homo sapiens) (P48730 whole entry, looked up, the tested form may be a part, canonical isoform): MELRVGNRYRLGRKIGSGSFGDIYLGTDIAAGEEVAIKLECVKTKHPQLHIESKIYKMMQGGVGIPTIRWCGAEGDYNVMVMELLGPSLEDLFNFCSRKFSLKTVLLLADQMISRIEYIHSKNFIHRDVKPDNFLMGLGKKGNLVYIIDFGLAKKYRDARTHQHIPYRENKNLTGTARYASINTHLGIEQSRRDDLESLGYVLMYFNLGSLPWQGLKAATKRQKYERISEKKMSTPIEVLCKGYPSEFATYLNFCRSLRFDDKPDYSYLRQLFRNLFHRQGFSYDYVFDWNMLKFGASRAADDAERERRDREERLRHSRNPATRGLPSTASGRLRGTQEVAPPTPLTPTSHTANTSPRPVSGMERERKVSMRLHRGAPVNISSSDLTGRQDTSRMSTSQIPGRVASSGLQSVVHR
# [5] = biological target: MAP kinase-activated protein kinase 2 (Homo sapiens) (UniProt P49137); conditions: 0.1 uM
# Chain of MAP kinase-activated protein kinase 2 (Homo sapiens) (P49137 whole entry, looked up): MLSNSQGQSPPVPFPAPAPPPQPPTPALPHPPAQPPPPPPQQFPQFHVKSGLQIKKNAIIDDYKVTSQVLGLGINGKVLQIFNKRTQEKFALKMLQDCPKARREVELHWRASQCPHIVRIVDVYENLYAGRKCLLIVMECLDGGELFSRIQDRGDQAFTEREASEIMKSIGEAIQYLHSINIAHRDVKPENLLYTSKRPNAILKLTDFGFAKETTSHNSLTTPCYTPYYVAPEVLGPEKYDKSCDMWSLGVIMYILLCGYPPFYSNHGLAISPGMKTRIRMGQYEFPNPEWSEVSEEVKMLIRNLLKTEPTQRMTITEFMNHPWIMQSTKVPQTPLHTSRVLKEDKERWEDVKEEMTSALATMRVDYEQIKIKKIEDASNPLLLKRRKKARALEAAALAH
# Description: Inhibition of human full length MAPKAPK2 expressed in baculovirus assessed as substrate phosphorylation using fluorescence-labelled peptides as substrate at 0.1 uM after 90 mins by microfluidic peptide phosphorylation assay
# [6] = biological target: T2, Protein kinase C zeta type (Homo sapiens) (UniProt Q05513); assay: Inhibition of human full length PKC zeta expressed in baculovirus assessed as substrate phosphorylation using fluorescence-labelled peptides as substrate at 9 uM after 90 mins by microfluidic peptide phosphorylation assay
# T2 sequence (whole entry): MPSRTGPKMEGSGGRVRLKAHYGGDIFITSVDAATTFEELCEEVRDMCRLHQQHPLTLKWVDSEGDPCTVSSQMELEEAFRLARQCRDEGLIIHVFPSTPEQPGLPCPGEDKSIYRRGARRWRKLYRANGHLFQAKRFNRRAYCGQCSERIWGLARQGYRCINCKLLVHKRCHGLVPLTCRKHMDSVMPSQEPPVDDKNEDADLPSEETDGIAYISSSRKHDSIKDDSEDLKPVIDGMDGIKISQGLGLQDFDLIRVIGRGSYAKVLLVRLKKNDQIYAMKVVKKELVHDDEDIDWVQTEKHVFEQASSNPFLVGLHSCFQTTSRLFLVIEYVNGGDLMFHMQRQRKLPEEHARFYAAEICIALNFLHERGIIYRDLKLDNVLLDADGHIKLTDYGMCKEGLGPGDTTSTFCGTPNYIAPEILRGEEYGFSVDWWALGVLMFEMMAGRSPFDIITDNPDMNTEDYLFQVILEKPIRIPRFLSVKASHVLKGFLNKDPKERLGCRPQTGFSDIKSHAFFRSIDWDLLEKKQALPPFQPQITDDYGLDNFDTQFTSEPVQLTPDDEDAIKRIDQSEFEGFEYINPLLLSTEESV
# [7] = tested on: T3, Receptor-type tyrosine-protein kinase FLT3 (Homo sapiens), P36888 [D835Y]; assay: Inhibition of human FLT3 D835Y mutant catalytic domain expressed in baculovirus assessed as substrate phosphorylation using fluorescence-labelled peptides as substrate at 95 uM after 90 mins by microfluidic peptide phosphorylation assay
# T3 sequence (whole entry): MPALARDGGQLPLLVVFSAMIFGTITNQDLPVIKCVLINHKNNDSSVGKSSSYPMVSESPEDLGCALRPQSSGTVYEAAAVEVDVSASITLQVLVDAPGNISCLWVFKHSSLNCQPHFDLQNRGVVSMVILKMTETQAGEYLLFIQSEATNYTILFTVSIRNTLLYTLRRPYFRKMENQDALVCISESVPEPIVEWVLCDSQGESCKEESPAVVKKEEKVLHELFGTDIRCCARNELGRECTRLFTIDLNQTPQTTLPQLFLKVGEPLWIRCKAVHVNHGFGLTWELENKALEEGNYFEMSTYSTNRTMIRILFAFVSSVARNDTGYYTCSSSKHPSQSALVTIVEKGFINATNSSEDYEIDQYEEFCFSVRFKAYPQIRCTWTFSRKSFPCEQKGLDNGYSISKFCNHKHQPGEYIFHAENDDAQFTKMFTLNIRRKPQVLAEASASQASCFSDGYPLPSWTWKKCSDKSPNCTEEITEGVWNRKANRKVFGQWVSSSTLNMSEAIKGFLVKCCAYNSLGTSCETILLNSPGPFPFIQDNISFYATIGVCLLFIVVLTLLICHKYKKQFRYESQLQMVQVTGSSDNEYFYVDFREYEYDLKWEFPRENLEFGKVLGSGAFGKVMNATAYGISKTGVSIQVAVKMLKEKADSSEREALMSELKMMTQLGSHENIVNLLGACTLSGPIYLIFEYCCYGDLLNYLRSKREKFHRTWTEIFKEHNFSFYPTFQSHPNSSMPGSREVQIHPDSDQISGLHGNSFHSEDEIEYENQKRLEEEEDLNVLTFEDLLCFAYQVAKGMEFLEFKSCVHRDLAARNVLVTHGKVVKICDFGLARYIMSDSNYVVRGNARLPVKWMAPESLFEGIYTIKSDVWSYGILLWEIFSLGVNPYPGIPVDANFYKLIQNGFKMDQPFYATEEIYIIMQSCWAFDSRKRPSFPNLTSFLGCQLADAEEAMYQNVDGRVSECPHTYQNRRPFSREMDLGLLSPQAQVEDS
# [8] = biological target: T4, Serine/threonine-protein kinase Sgk3 (Homo sapiens) (UniProt Q96BR1); assay: Inhibition of human full length SGK3 expressed in baculovirus assessed as substrate phosphorylation using fluorescence-labelled peptides as substrate at 8 uM after 90 mins by microfluidic peptide phosphorylation assay
# T4 sequence (whole entry): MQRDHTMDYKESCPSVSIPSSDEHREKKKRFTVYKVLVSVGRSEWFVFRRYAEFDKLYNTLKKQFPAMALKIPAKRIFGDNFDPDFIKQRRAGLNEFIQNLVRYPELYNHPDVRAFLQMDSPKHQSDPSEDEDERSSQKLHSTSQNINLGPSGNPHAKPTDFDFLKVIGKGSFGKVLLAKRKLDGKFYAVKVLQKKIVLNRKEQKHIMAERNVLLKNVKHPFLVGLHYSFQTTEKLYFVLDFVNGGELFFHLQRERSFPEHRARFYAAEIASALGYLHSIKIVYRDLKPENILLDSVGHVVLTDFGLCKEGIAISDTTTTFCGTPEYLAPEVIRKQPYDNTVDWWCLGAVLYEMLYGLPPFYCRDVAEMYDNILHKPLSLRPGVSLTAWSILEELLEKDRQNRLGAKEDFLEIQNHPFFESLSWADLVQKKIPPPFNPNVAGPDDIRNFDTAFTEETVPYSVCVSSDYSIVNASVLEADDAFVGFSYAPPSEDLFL
smiles,measurement,setting,value
NC1(Cc2ccc(Cl)cc2)CCN(c2ncnc3[nH]ccc23)CC1,inhibition,[1],0%
c1nc(N2CCOCC2)c2nc[nH]c2n1,inhibition,[2],60.5%
Clc1ccc(C2(c3ccc(-c4ncnc5[nH]cnc45)cc3)CCNCC2)cc1,inhibition,[3],73.5%
C[C@H](CN(C)C)Oc1nc(Nc2cc3cccc(Cl)c3cn2)cnc1C#N,inhibition,[4],9.5%
same,inhibition,[5],0%
NCC1CN(c2ncnc3[nH]c4cnccc4c23)CCO1 (stereo not drawn),inhibition,[6],22%
NCCc1ccc(-c2ncnc3[nH]cnc23)cc1,inhibition,[7],86%
NCC1CCN(c2ncnc3[nH]ccc23)CC1,inhibition,[8],83%
